Reference: patent US20080319175A1, “Transthyretin Stabilization” (The Scripps Research Institute, priority 2004, published 2008)
“Also recorded” adds a separate entry of the source.

Columns and labels:
[1] = biological target: T1, WT-TTR (Homo sapiens, UniProt P02766); test: stagnant acid-mediated TTR fibril formation assay (turbidity); assay type: biochemical; conditions: WT-TTR 3.6 μM; for inhibitor potency against fibril formation (in words): inhibitor 3.6 μM, pH 4.4, 72 h
T1 construct: made in house
Protocol: (§1) TTR amyloid inhibition efficacy was probed using a stagnant fibril formation assay described previously, wherein partial denaturation was triggered by acidification (pH 4.4, 37° C.) (Colon, W.; Kelly, J. W. Biochemistry 1992, 31, 8654-8660). Briefly, a test compound (7.2 or 3.6 μM) is incubated with TTR (3.6 μM) for 30 min in pH 7 buffer. Amyloidogenesis is then initiated by lowering to pH 4.4, where maximal fibril formation is observed with WT-TTR after 72 h (37° C.). The turbidity in the presence of a potential inhibitor (Ttest) is compared to that of a solution lacking a test compound (Tcontrol). […] From experience we know that excellent inhibitors allow <10% fibril formation at a small molecule concentration of 7.2 μM and <40% fibril formation at a concentration equal to that of WT-TTR (3.6 μM) (Hammarstrom, P.; et al. Science 2003, 299, 713-716; Klabunde, T.; et al. Nature Struct. Biol. 2000, 7, 312-321; Razavi, H.; et al. Angew Chem 2003, 42, 2758-2761; Miroy, G. J.; et al. Proc. Natl. Acad. Sci. USA 1996, 93, 15051-15056; Peterson, S. A.; et al. Proc. Natl. Acad. Sci. USA 1998, 95, 12956-12960; Baures, P. W.; et al. Bioorg. Med. Chem. 1998, 6, 1389-1401; Baures, P. W.; et al. Bioorg. Med. Chem. 1999, 7, 1339-1347; Petrassi, H. M.; et al. J. Am. Chem. Soc. 2000, 122, 2178-2192; McCammon, M. G.; et al. Structure 2002, 10, 851-863; Oza, V. B.; et al. J. Med. Chem. 2002, 45, 321-332; Sacchettini, J. C.; et al. Nature Rev. Drug Disc. 2002, 1, 267-275; Green, N. S.; et al. J. Am. Chem. Soc. 2003, 125, 13404-13414; Adamski-Werner, S. L.; et al. J. Med. Chem. 2004, 47, 355-374; Miller Sean, R.; et al. Lab. Inv. 2004, 84, 545-552). […] Therefore, when both the ligand and TTR are at equal concentrations, a population of TTR•I, TTR•I2 and unliganded TTR is observed, dictated by the dissociation constants. It is now established by other studies that inhibitor occupancy of only one of the two TTR binding sites is sufficient to stabilize the entire tetramer against amyloidogenesis (Wiseman, R. L.; et al. J. Am. Chem. Soc. 2005, in press). This is further supported by the observation herein that twenty-six of these dibenzofurans are excellent TTR amyloidogenesis inhibitors (<40% fibril formation) at a concentration equal to that of TTR (3.6 μM each, FIG. 3).
(§2) The procedures used for bacterial expression of TTR (Lai, Z.; et al. Biochemistry 1996, 35, 6470-6482), the stagnant fibril formation assay (Colon, W.; Kelly, J. W. Biochemistry 1992, 31, 8654-8660; Lai, Z.; et al. Biochemistry 1996, 35, 6470-6482), the blood plasma binding selectivity assay (Purkey, H. E.; et al. Proc. Natl. Acad. Sci. USA 2001, 98, 5566-5571), and analytical ultracentrifugation (Lashuel, H. A.; et al. Biochemistry 1998, 37, 17851-17864) have all been described in detail previously.
FIG. 2 is a table highlighting the concentration dependent acid-substituted dibenzofuran activity against WT-TTR (3.6 μM) amyloid fibril formation (f.f.) at pH 4.4 (72 h). Values represent the extent of f.f. and thus inhibitor efficacy relative to WT-TTR fibril formation in the absence of inhibitor (assigned to be 100%): complete inhibition is equivalent to 0% f.f.
(§3) FIG. 3 is a chart showing a summary of dibenzofuran-based amyloid inhibition activity ([…]) against WT-TTR ([…]) fibril formation (pH 4.4, 72 h) and binding stoichiometry to TTR in human blood plasma. % Fibril formation (f.f.) values in the middle column represent the extent of f.f., and thus inhibitor efficacy, relative to WT-TTR f.f. in the absence of inhibitor (assigned to be 100%). Complete inhibition is equivalent to 0% f.f. The right column depicts the observed stoichiometry of inhibitor (dosed at […], ˜2-3× the concentration of plasma TTR) bound to TTR in blood plasma as determined using the antibody capture method.
FIG. 6 is a chart showing dibenzofuran-based inhibitor activity (7.2 μM) against WT-TTR (3.6 μM) amyloid fibril formation (f.f.) at pH 4.4 (72 h). […]

[2] = precipitation of small molecule under acid-mediated amyloidogenic conditions in the absence of TTR; assay type: physicochemical; conditions: 3.6 μM, pH 4.4, 37° C., 72 h
Protocol: as §1

[3] = biological target: T2, TTR in human blood plasma (Homo sapiens, UniProt P02766); test: blood plasma TTR binding selectivity, antibody capture method; conditions: inhibitor 10.8 μM
T2 construct: from tissue; host or cells: human blood plasma
Protocol: Inhibitor binding selectivity to TTR in human blood plasma was assessed using a previously established antibody capture method (Purkey, H. E.; et al. Proc. Natl. Acad. Sci. USA 2001, 98, 5566-5571). In this evaluation, inhibitors (10.8 μM, ˜2-3× the natural concentration of TTR) are incubated in human blood plasma for 24 h at 37° C. Quenched sepharose resin is then added to the plasma to remove any small molecules that would bind to the resin as opposed to TTR. TTR and any TTR-bound small molecule is then immunocaptured using a polyclonal TTR antibody covalently attached to sepharose resin. After washing the resin (5×10 min washes), the antibody-TTR complex is dissociated at high pH and analyzed by RP-HPLC. The relative stoichiometry between TTR and inhibitor is then calculated from their HPLC peak areas using standard curves.
as §2, §3

Row | SMILES | inhibitor potency against fibril formation (in words) [1] | precipitation of compound in the absence of TTR [2] | binding selectivity to TTR in human blood plasma (in words) [3] | other results
1 | O=C(O)c1cccc2c1oc1c(C(=O)O)ccc(-c3ccccc3F)c12 [Compound 67] | most potent |  |  | 
2 | O=C(O)c1cccc2c1oc1c(C(=O)O)ccc(Nc3cccc(Cl)c3)c12 [Compound 27] |  | no measurable precipitation |  | 
3 | O=C(O)c1cccc2c1oc1c(C(=O)O)ccc(Nc3cc(Cl)cc(Cl)c3)c12 [Compound 30] |  | no measurable precipitation |  | 
4 | O=C(O)c1cccc2c1oc1c(C(=O)O)ccc(Oc3cccc(C(F)(F)F)c3)c12 [Compound 45] |  | no measurable precipitation |  | 
5 | O=C(O)c1cccc2c1oc1c(C(=O)O)ccc(-c3cc(Cl)cc(Cl)c3)c12 [Compound 63] | most potent |  |  | 
6 | O=C(O)c1cccc(Nc2ccc(C(=O)O)c3oc4c(C(=O)O)cccc4c23)c1 [Compound 33] | amongst the most potent |  | modest | 
7 | O=C(O)c1cc(Nc2ccc(C(=O)O)c3oc4c(C(=O)O)cccc4c23)cc(C(=O)O)c1 [Compound 34] | all the inhibitors (except 34) display increased potency relative to the parent compound (1) |  |  | inhibition of WT-TTR fibril formation at 7.2 μM inhibitor (in words) ([1]; inhibitor 7.2 μM, pH 4.4, 37° C., 72 h): not as effective; also recorded: all but one (34) completely inhibit fibril formation
8 | O=C(O)c1ccc(Nc2ccc(C(=O)O)c3oc4c(C(=O)O)cccc4c23)cc1 [Compound 35] |  |  | all but two (31 and 35) exhibit dramatically increased binding selectivity | 
9 | O=C(O)c1cccc2c1oc1c(C(=O)O)ccc(Nc3cccc(C(F)(F)F)c3)c12 [Compound 26] |  | no measurable precipitation |  | 
10 | O=C(O)c1cccc2c1oc1c(C(=O)O)ccc(Nc3ccccc3F)c12 [Compound 36] | most potent |  |  | 
11 | O=C(O)c1cccc(-c2ccc(C(=O)O)c3oc4c(C(=O)O)cccc4c23)c1 [Compound 69] | amongst the most potent |  | modest | 
12 | O=C(O)c1cccc2c1oc1c(C(=O)O)cccc12 [Compound 1, dibenzofuran-4,6-dicarboxylic acid, reference compound] |  |  | no measurable binding selectivity | 
13 | O=C(O)c1cccc2c1oc1c(C(=O)O)ccc(Nc3cc(C(F)(F)F)cc(C(F)(F)F)c3)c12 [Compound 31] |  |  | all but two (31 and 35) exhibit dramatically increased binding selectivity | 
14 | O=C(O)c1cccc2c1oc1c(C(=O)O)ccc(-c3cc(F)cc(F)c3)c12 [Compound 62] |  | no measurable precipitation |  | 
